The source of these data is ChEMBL document CHEMBL1811879, “Fragmental modeling of hPepT2 and analysis of its binding features by docking studies and pharmacophore mapping” (Bioorg Med Chem, 2011).

One may read the Ki as the equilibrium dissociation constant of an inhibitor or competing ligand from its target.

Where a SMILES comes first, the peptide text is derived from it. [ ]: non-standard residue; d: D form. Nle = CCCC[C@H](N)C(=O)O

This test addresses T1, Solute carrier family 15 member 2 (Homo sapiens, UniProt Q16348).
T1 sequence (Q16348 whole entry): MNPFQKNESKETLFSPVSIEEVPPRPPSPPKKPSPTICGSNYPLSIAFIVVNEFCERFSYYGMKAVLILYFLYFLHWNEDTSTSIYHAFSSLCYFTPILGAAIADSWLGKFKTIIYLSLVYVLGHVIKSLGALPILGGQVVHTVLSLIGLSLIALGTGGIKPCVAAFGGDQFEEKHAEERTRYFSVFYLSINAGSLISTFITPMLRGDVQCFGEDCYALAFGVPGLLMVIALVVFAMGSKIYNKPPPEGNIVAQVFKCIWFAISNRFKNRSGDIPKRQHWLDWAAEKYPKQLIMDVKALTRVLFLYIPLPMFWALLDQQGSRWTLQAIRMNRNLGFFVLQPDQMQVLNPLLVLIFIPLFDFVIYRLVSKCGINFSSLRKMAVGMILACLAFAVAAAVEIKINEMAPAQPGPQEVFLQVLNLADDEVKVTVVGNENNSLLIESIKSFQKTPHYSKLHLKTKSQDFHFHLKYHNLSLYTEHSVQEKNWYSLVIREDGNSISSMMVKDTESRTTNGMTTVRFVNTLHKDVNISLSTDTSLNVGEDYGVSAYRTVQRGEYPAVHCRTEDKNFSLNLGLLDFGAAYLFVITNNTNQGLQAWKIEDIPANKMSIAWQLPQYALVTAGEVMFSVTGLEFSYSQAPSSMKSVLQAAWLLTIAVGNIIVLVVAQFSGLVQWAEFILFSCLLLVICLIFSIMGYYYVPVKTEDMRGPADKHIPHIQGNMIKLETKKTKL
Put plainly: Binding affinity to human PepT2 in SKTP cells. In kind it is ADME, cell-based.

In the case of `CC[C@H](C)[C@H](N)C(=O)N[C@@H](Cc1ccc(O)cc1)C(=O)O` (H-Ile-Tyr-OH), affinity was put at a Ki of 8 µM. In turn, `CO[C@@]1(NC(=O)CSCC#N)C(=O)N2C(C(=O)O)=C(CSc3nnnn3C)CS[C@@H]21` [CEFMETAZOLE] displayed a Ki of 4300 µM. In the case of `CSCC[C@H](NC(=O)[C@@H](N)CCSC)C(=O)O` (H-Met-Met-OH), affinity was put at a Ki of 3 µM. As for `CC(=O)OCC1=C(C(=O)O)N2C(=O)[C@@H](NC(=O)Cc3cccs3)[C@H]2SC1` [CEPHALOTHIN], the affinity corresponds to a Ki of 8300 µM. `CC(C)C[C@H](N)C(=O)NCC(=O)NCC(=O)O` (H-Leu-Gly-Gly-OH) yielded an inhibition constant Ki of 18 µM. Consider `CC(=O)CCC(=O)O` [LEVULINIC ACID], for which affinity was put at a Ki of 230 µM. This Ki lies about 13-fold higher than the previous one. Consider `C[C@H](N)C(=O)N1CCC[C@H]1C(=O)O` (H-Ala-Pro-OH), for which the inhibition constant Ki came to 12 µM.

Regarding `C[C@H](NC(=O)[C@@H](N)Cc1ccc(O)cc1)C(=O)O`, the Ki was 4.4 µM. `N[C@@H](Cc1ccc(O)cc1)C(=O)N[C@@H](Cc1ccccc1)C(=O)O` (H-Tyr-Phe-OH) returned an inhibitory constant (Ki) of 9 µM.

Turning to `CC1=C(C(=O)O)N2C(=O)[C@@H](NC(=O)[C@H](N)c3ccccc3)[C@H]2SC1` [CEPHALEXIN ANHYDROUS], the inhibition constant Ki was found to be 75 µM.

Consider `CC(C)C[C@H](N)C(=O)N1CCC[C@H]1C(=O)O` (H-Leu-Pro-OH), for which the Ki came out at 10 µM.

In the case of H-FATAA-OH, the Ki turned out to be 240 µM. Take `C[C@H](N)C(=O)N[C@@H](C)C(=O)N[C@@H](CC(=O)O)C(=O)O` (H-Ala-Ala-Asp-OH): affinity was put at a Ki of 160 µM. With `Cn1nnnc1SCC1=C(C(=O)O)N2C(=O)[C@@H](NC(=O)[C@H](O)c3ccccc3)[C@H]2SC1` [CEFAMANDOLE] the figure was 2800 µM; with `C[C@H](NC(=O)[C@@H](N)Cc1c[nH]c2ccccc12)C(=O)O` (H-Trp-Ala-OH), 4 µM.

The molecule `C[C@H](NC(=O)[C@@H](N)CO)C(=O)O` (H-Ser-Ala-OH) returned a Ki of 7 µM. Regarding `NCC(=O)N[C@@H](Cc1c[nH]cn1)C(=O)O` (H-Gly-His-OH), affinity was put at a Ki of 39 µM. With `NCCCC[C@H](NC(=O)[C@H](Cc1ccccc1)NC(=O)[C@@H]1CCCN1)C(=O)O` (H-Pro-Phe-Lys-OH) the figure was 900 µM; with `CC(C)[C@H](N)C(=O)N1CCC[C@H]1C(=O)O` (H-Val-Pro-OH), 39 µM. In the case of `N[C@@H](Cc1c[nH]c2ccccc12)C(=O)N[C@@H](Cc1c[nH]c2ccccc12)C(=O)N[C@@H](Cc1c[nH]c2ccccc12)C(=O)O` (H-Trp-Trp-Trp-OH), the affinity corresponds to a Ki of 0.3 µM. This Ki is about 130-fold lower than that of the molecule before.

On to `N[C@@H](CC(=O)O)C(=O)N[C@@H](CC(=O)O)C(=O)O` (H-Asp-Asp-OH), for which the affinity corresponds to a Ki of 150 µM.

In turn, `NCC(=O)NCC(=O)O` (H-Gly-Gly-OH) showed a Ki of 54 µM. This Ki is about 2.8-fold lower than that of the molecule before. Molecule `Cc1onc(-c2c(Cl)cccc2Cl)c1C(=O)N[C@@H]1C(=O)N2[C@@H]1SC(C)(C)[C@@H]2C(=O)O` [DICLOXACILLIN] gave a Ki of 420 µM.

`C[C@H](NC(=O)CN)C(=O)O` (H-Gly-Ala-OH): the Ki came to 3.5 µM. On to `C[C@H](N)C(=O)N[C@@H](CO)C(=O)O` (H-Ala-Ser-OH), for which the Ki was 6 µM.

In turn, `N[C@@H](Cc1ccccc1)C(=O)NCC(=O)O` (H-Phe-Gly-OH) had a Ki of 14 µM. With `C[C@H](N)C(=O)NCC(=O)O` (H-Ala-Gly-OH), the Ki stood at 7 µM. The molecule `CO/N=C(\C(=O)N[C@@H]1C(=O)N2C(C(=O)[O-])=C(C[N+]3(C)CCCC3)CS[C@H]12)c1csc(N)n1` came in with a Ki of 11000 µM. On to `O=C(O)CC[C@H](NC(=O)[C@@H]1CCCN1)C(=O)O` (H-Pro-Glu-OH), for which the Ki came to 2600 µM. Regarding `C[C@H](N)C(=O)N[C@H](C)C(=O)O` (H-Ala-[dA]-OH), affinity was put at a Ki of 270 µM. The value for `C[C@H](NC(=O)[C@@H](N)CCCCN)C(=O)O` (H-Lys-Ala-OH) was 41 µM. Molecule `Cc1onc(-c2ccccc2)c1C(=O)N[C@@H]1C(=O)N2[C@@H]1SC(C)(C)[C@@H]2C(=O)O` [OXACILLIN] gave an inhibition constant (Ki) of 3300 µM. H-AATAA-OH registered a Ki of 190 µM.

As to `CO/N=C(\C(=O)N[C@@H]1C(=O)N2C(C(=O)O)=C(COC(N)=O)CS[C@H]12)c1ccco1` [CEFUROXIME], the Ki worked out at 12600 µM. Compared with the last molecule, the Ki is about 66-fold higher. With `C[C@H](NC(=O)[C@@H](C)N)C(=O)O` (H-[dA]-Ala-OH), the affinity corresponds to a Ki of 130 µM. `N[C@@H](Cc1ccccc1)C(=O)N[C@@H](Cc1ccccc1)C(=O)O` (H-Phe-Phe-OH) had a Ki of 37 µM. Compared with the last molecule, the Ki is about 3.5-fold lower. For `CC1(C)S[C@@H]2[C@H](NC(=O)[C@H](N)c3ccc(O)cc3)C(=O)N2[C@H]1C(=O)O` [AMOXICILLIN], the inhibition constant Ki is 430 µM. The value for `N[C@@H](CS)C(=O)NCC(=O)O` was 29 µM; that for `COCC1=C(C(=O)O)N2C(=O)[C@@H](NC(=O)/C(=N\OC)c3csc(N)n3)[C@H]2SC1` [CEFPODOXIME] was 31000 µM.

Molecule `C[C@H](N)C(=O)N[C@@H](CCCCN)C(=O)O` (H-Ala-Lys-OH) gave a Ki of 23 µM.

In the case of `CCCC[C@H](NC(=O)[C@H](C)N)C(=O)O` (H-Ala-[Nle]-OH), the Ki is 31 µM. In turn, `CO/N=C(\C(=O)N[C@@H]1C(=O)N2C(C(=O)O)=C(COC(C)=O)CS[C@H]12)c1csc(N)n1` [CEFOTAXIME] gave a Ki of 20000 µM. Consider `O=C(O)C[C@H](NC(=O)[C@@H]1CCCN1)C(=O)O` (H-Pro-Asp-OH), for which the Ki was found to be 2100 µM.

Regarding `CC(=O)OCC1=C(C(=O)O)N2C(=O)[C@@H](NC(=O)CSc3ccncc3)[C@H]2SC1` [CEPHAPIRIN SODIUM], the affinity, expressed as Ki, was 11100 µM. This Ki lies about 5.3-fold higher than the previous one. Consider `CO/N=C(\C(=O)N[C@@H]1C(=O)N2C(C(=O)O)=C(CSc3nc(C)c(CC(=O)O)s3)CS[C@H]12)c1csc(N)n1` [CEFODIZIME], for which the affinity, expressed as Ki, was 9000 µM. This Ki and that of the molecule before are within 1.5-fold of each other. As for `C=N[C@@H](C(=O)N[C@@H]1C(=O)N2[C@@H]1SC(C)(C)[C@@H]2C(=O)O)c1ccccc1` [METAMPICILLIN], the Ki was found to be 730 µM.

`Cc1onc(-c2ccccc2Cl)c1C(=O)N[C@@H]1C(=O)N2[C@@H]1SC(C)(C)[C@@H]2C(=O)O` [CLOXACILLIN]: the Ki amounted to 950 µM.

Regarding `N[C@@H](Cc1c[nH]c2ccccc12)C(=O)NCC(=O)N[C@@H](Cc1ccc(O)cc1)C(=O)O`, the inhibitory constant (Ki) turned out to be 1.7 µM. `CC1(C)S[C@@H]2[C@H](NC(=O)C3(N)CCCCC3)C(=O)N2[C@H]1C(=O)O` [CYCLACILLIN] displayed a Ki of 44 µM. With `C[C@H](N)C(=O)N[C@@H](C)C(=O)N[C@@H](C)C(=O)O`, the inhibition constant (Ki) is 18 µM. `CC[C@H](C)[C@H](N)C(=O)N[C@H](C(=O)N[C@@H](Cc1ccc(O)cc1)C(=O)O)C(C)C` (H-Ile-Val-Tyr-OH) gave a Ki of 14 µM. The Ki values of the last two molecules are within 1.5-fold of each other. With `CC(=O)N[C@@H](CCCCN)C(=O)N[C@@H](C)C(=O)O` (Ac-Lys-Ala-OH) the figure was 16 µM; with `C=CC1=C(C(=O)O)N2C(=O)[C@@H](NC(=O)/C(=N\OCC(=O)O)c3csc(N)n3)[C@H]2SC1` [CEFIXIME], 2600 µM. With `CC1=C(C(=O)O)N2C(=O)[C@@H](NC(=O)[C@H](N)c3ccc(O)cc3)[C@H]2SC1` [CEFADROXIL] the figure was 3 µM.

For the molecule `CC(C)[C@H](N)C(=O)N[C@@H](Cc1ccc(O)cc1)C(=O)O` (H-Val-Tyr-OH), the inhibitory constant (Ki) was determined as 2.5 µM.

Turning to `NCCCC[C@H](NC(=O)[C@H](Cc1cnc[nH]1)NC(=O)CN)C(=O)O` (H-Gly-His-Lys-OH), the affinity corresponds to a Ki of 3100 µM. For `C[C@H](N)C(=O)N[C@H](C(=O)N[C@@H](C)C(=O)N[C@@H](C)C(=O)O)[C@@H](C)O` (H-ATAA-OH), the inhibitory constant (Ki) amounted to 550 µM. This Ki is about 5.6-fold lower than that of the molecule before. Molecule `O=C(Cc1cccs1)N[C@@H]1C(=O)N2C(C(=O)[O-])=C(C[n+]3ccccc3)CS[C@H]12` [CEPHALORIDINE] had a Ki of 8500 µM. `N[C@@H](Cc1c[nH]c2ccccc12)C(=O)N[C@@H](Cc1c[nH]c2ccccc12)C(=O)O` (H-Trp-Trp-OH) came in with a Ki of 0.8 µM.
